Source: ChEMBL document CHEMBL1145342, “Structure-based drug design and structural biology study of novel nonpeptide inhibitors of severe acute respiratory syndrome coronavirus main protease” (J Med Chem, 2006)

Tests used:
[1] = biological target: Replicase polyprotein 1a (Severe acute respiratory syndrome-related coronavirus, UniProt P0C6U8); experiment: Inhibition of SARS coronavirus main protease
[2] = biological target: Replicase polyprotein 1a (Severe acute respiratory syndrome-related coronavirus) (UniProt P0C6U8); experiment: Inhibition of SARS coronavirus main protease at 10 uM

`O=C(Oc1ccc(S(=O)(=O)c2ccc(OC(=O)C(Cl)=C(Cl)Cl)cc2)cc1)C(Cl)=C(Cl)Cl` gave an IC50 [1] of 0.9 µM.

Compound `CC1(C)CC(=O)c2c(NCc3ccco3)sc(C#N)c2C1` has an IC50 [1] of 16 µM.

`O=S(=O)(Cc1[nH]c(-c2ccc(Cl)s2)c[s+]1)c1cccs1` gave an IC50 [1] of 18 µM.

Compound `Cc1oc(C(C)(C)C)cc1-c1cc(NS(=O)(=O)c2cccs2)[nH]n1` has an IC50 [1] of 10 µM.

`Cc1noc(NC(=O)c2ccc(-c3cc(C(F)(F)F)nn3C)s2)c1[N+](=O)[O-]` showed an IC50 [1] of 5 µM.

In the case of `Cc1nn(C)c(NCc2ccc(-c3cccs3)s2)c1[N+](=O)[O-]`, the IC50 [1] is reported as 20 µM.

Compound `CCOC(=O)C(=CNc1ccc(S(=O)(=O)c2ccc(/N=C/C(C(=O)OCC)=C(\O)OCC)cc2)cc1)C(=O)OCC` has an IC50 [1] of 32 µM.

Compound `CSc1[nH]nc(NC(=O)c2cccs2)c1S(=O)(=O)c1ccccc1` has an IC50 [1] of 15 µM.

Work on `Clc1ccc(-c2noc(CSC3=NCCN3)n2)cc1` yielded an inhibition [2] of 61%.

`O=[N+]([O-])c1ccc(S(=O)(=O)c2ccc(Cl)cc2)[n+]([O-])c1` showed an IC50 [1] of 15 µM.

Compound `CC(=O)c1ccccc1S(=O)(=O)c1ccccc1C(=O)O` has an IC50 [1] of 16 µM.

`O=[N+]([O-])c1cc(C(F)(F)F)ccc1S(=O)(=O)c1ccc(Cl)cc1` gave an IC50 [1] of 12 µM.

In the case of `COc1ccc([N+](=O)[O-])c(S(=O)(=O)c2ccccc2)n1`, the inhibition [2] is reported as 58%.

In the case of `Nc1ncc(S(=O)(=O)c2ccc(Cl)cc2)c(N)n1`, the IC50 [1] is reported as 6 µM.

Compound `CCOC(=O)/C(C#N)=C/Nc1ccc(S(=O)(=O)c2ccc(/N=C/C(C#N)=C(\O)OCC)cc2)cc1` has an IC50 [1] of 16 µM.

`O=C(Cc1nccs1)c1nccs1` was tested, and the IC50 [1] was 40 µM.

`O=C(O)c1ccc(S(=O)(=O)c2cc(Br)c(O)c(Br)c2)cc1` gave an IC50 [1] of 16 µM.

Compound `O=[N+]([O-])c1ccc(S(=O)(=O)c2ccc([N+](=O)[O-])cc2)cc1` has an IC50 [1] of 25 µM.
